From ChEMBL document CHEMBL1201862, “PubChem BioAssay data set” (2004) come the findings set out here.

SMILES strings stand for the structures.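 Grown in 96-well plates, cells were treated for 48 hours with each compound at five concentrations. Insufficient inhibition: endpoint recorded as highest concentration tested. At the GI50, growth is halved.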 Active and inactive are the calls of the source. No stated cut-off is given here; in the data, active = GI50 up to about 1.1 µM and inactive = higher. Where only a bound is given, the exact number is not on record here.

Holding throughout (assay): NCI-60 cell line screen, 48 h
Test [1] concerns A498.
Test [2] concerns DLD-1.
The subject of test [3] is HCT-116.
Test [4] concerns HCT-15.
In test [5] the test system is HOP-62.
The test system of test [6] is M14.
In test [7] the test system is NCI-H23.
Test [8] deals with NCI-H460.
For test [9], the system named is OVCAR-8.
The subject of test [10] is SF-295.
For test [11], the system named is SK-OV-3.
The subject of test [12] is SNB-75.
In test [13] the test system is UACC-257.
Test [14] relates to UACC-62.
For test [15], the system named is HT-29.
Test [16] concerns NCI-H226.
Test [17] deals with OVCAR-5.

Take `CC1(C)CCOC(Sc2ccccc2)C1` (stereo not drawn): the GI50 in test [1] is 67.3 µM (inactive); in test [2], > 100 µM (inactive); in test [3], 60.4 µM (inactive); in test [4] it was 50.6 µM; in test [5] it was > 100 µM (inactive); in test [6] it was 53.2 µM (inactive). For the same compound, the GI50 was 10.8 µM (inactive) in test [7]; 84.9 µM (inactive) in test [8]; > 100 µM (inactive) in test [9]; 66.2 µM (inactive) in test [10]; > 100 µM (inactive) in [11]; 53.2 µM (inactive) in test [12]. Also, the values for the GI50 in test [13] and in [14] were 35.2 µM (inactive) and 38.5 µM (inactive), respectively.
Regarding `Cc1nnc(N/N=C2/C(=O)Nc3c(Cl)cc(Cl)cc32)n1N`, the GI50 is > 100 µM (inactive) in test [1]; > 100 µM (inactive) in test [2]; > 100 µM (inactive) in test [3]; over 100 µM in test [4]; > 100 µM (inactive) in [5]; > 100 µM (inactive) in [15]. The GI50 in test [6], in test [16], in test [7], in test [8], in test [17] and in test [9] was > 100 µM (inactive) each time. The GI50 in test [10], in test [11], in test [13] and in test [14] was > 100 µM (inactive) in each case.
On to `COc1ccc2[nH]c3c(C)cc([N+](=O)[O-])c(C)c3c2c1`, for which the GI50 is 21.6 µM (inactive) in test [1]; 26.6 µM (inactive) in test [2]; 17.9 µM (inactive) in test [3]; 26.6 µM in test [4]; 28.5 µM (inactive) in test [15]; 21.1 µM (inactive) in test [6]. In addition, the GI50 was 43.7 µM (inactive) in test [16]; 22.6 µM (inactive) in test [7]; 15.5 µM (inactive) in [8]; 23 µM (inactive) in test [9]; 41.4 µM (inactive) in [10]; 28.2 µM (inactive) in test [11]. For the same compound, the GI50 in [12] is 20.4 µM (inactive); in [13], 31.2 µM (inactive).
On to `CC(=O)NC(C=O)C(O[C@H](C)C(=O)NC(C)C(=O)NC(CCC(N)=O)C(=O)OCc1ccccc1)C(O)C(O)COC(=O)CCNc1c2ccccc2nc2cccc([N+](=O)[O-])c12` (stereo partly drawn), for which the GI50 in test [1] was > 100 µM (inactive); in test [2] it was 3.41 µM (inactive); in test [3], 1.37 µM (inactive); in test [4], 11.4 µM; in [5], 2.95 µM (inactive); in [15], 2.14 µM (inactive). For the same compound, the GI50 was 1.9 µM (inactive) in [6]; 2.6 µM (inactive) in test [16]; 2.47 µM (inactive) in [7]; 1.73 µM (inactive) in test [8]; 3.44 µM (inactive) in test [17]; 4.89 µM (inactive) in test [9]. Besides, the GI50 was 13.1 µM (inactive) in test [10], 3.97 µM (inactive) in test [12], 7.46 µM (inactive) in test [13] and 3.23 µM (inactive) in [14].
Turning to `CC(/C(=N\Nc1ccccc1)c1ccc(O)cc1)C1C(=O)Oc2ccccc21` (stereo not drawn), the GI50 was > 100 µM (inactive) in test [1]; > 100 µM (inactive) in test [2]; > 100 µM (inactive) in test [3]; over 100 µM in test [4]; > 100 µM (inactive) in test [5]; > 100 µM (inactive) in test [15]. The GI50 in [6] is > 100 µM (inactive); in test [8], > 100 µM (inactive); in [9], > 100 µM (inactive); in test [10], > 100 µM (inactive); in [12], 55.7 µM (inactive); in [13], > 100 µM (inactive). For the same compound, the GI50 in test [14] was > 100 µM (inactive).
